ChEMBL document CHEMBL4346716, “Synthesis of novel andrographolide beckmann rearrangement derivatives and evaluation of their HK2-related anti-inflammatory activities” (Eur J Med Chem, 2019)
Active and inactive are the calls of the source. The calls are words filed in the database; no cut-off is given here.

Legend:
RAW264.7 [1] = experiment: Antiinflammatory activity in mouse RAW264.7 cells assessed as inhibition of LPS-induced NO production preincubated for 3 hrs followed by LPS addition measured after 24 hrs by Griess assay; assay type: functional, cell-based
Hexokinase-2 [2] = molecular target: T1, Hexokinase-2 (Homo sapiens, UniProt P52789); experiment: Inhibition of recombinant human HK2 expressed in Escherichia coli BL21(DE3) using glucose as substrate preincubated for 10 mins followed by substrate addition in presence of ATP by G6PDH/NADP coupled assay
T1 sequence (P52789 whole entry): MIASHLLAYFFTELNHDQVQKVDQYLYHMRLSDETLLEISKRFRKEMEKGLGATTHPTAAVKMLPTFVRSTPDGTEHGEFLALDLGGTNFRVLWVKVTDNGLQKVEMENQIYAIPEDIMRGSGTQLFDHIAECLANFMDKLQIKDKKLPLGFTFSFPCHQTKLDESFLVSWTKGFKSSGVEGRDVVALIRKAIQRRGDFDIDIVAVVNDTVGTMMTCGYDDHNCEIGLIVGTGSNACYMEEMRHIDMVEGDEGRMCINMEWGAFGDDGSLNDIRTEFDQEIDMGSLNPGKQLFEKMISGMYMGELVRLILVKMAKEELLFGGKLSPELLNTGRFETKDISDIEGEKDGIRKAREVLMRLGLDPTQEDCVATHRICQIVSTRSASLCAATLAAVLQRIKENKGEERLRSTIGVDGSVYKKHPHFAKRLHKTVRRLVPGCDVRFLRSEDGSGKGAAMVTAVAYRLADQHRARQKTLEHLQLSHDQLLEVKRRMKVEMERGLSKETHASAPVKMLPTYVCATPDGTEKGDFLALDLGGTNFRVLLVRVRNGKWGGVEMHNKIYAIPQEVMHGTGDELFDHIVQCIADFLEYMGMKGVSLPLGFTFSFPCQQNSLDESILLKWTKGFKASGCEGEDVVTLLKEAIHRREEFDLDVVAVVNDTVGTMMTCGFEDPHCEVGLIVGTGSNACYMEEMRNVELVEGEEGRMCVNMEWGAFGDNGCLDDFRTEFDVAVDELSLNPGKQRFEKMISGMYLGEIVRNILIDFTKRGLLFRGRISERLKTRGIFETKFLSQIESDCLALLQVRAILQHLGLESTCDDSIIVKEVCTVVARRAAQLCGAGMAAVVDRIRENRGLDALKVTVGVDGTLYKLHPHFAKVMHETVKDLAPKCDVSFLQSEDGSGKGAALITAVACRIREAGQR

RAW264.7 [3] = experiment: Cytotoxicity against mouse RAW264.7 cells assessed as reduction in cell viability up to 100 uM after 24 hrs by MTT assay; assay type: cell-based; conditions: raw264.7, 24 h
RAW264.7 [4] = experiment: Antiinflammatory activity in mouse RAW264.7 cells assessed as reduction in LPS-induced IL-1beta production preincubated for 3 hrs followed by LPS addition measured after 24 hrs by ELISA; assay type: functional, cell-based
RAW264.7 [5] = experiment: Antiinflammatory activity in mouse RAW264.7 cells assessed as reduction in LPS-induced IL-6 production preincubated for 3 hrs followed by LPS addition measured after 24 hrs by ELISA; assay type: functional, cell-based
RAW264.7 [6] = experiment: Antiinflammatory activity against mouse RAW264.7 cells assessed as inhibition of LPS-induced COX2 protein expression preincubated for 3 hrs followed by LPS addition measured after 24 hrs by Western blot analysis; assay type: functional, cell-based
RAW264.7 [7] = experiment: Antiinflammatory activity against mouse RAW264.7 cells assessed as inhibition of LPS-induced iNOS protein expression preincubated for 3 hrs followed by LPS addition measured after 24 hrs by Western blot analysis; assay type: functional, cell-based
RAW264.7 [8] = experiment: Inhibition of LPS-induced NFkappaB protein expression in mouse RAW264.7 cells at 12.5 to 50 uM preincubated for 3 hrs followed by LPS addition and measured after 24 hrs by Western blot analysis; assay type: functional, cell-based
[9] = molecular target: Transcription factor p65 (Mus musculus) (UniProt Q04207); experiment: Inhibition of LPS-stimulated NFkappaB p65 nuclear translocation in mouse RAW264.7 cells at 25 uM pretreated for 2 hrs followed by LPS-stimulation and measured after 12 hrs by DAPI staining based fluorescence microscopic analysis; assay type: cell-based
[10] = molecular target: T2, Hexokinase-2 (Mus musculus) (UniProt O08528); experiment: Inhibition of HK2 mouse RAW264.7 cells assessed as reduction in LPS-induced glycolysis at 50 uM followed by LPS-stimulation and measured after 4 hrs by seahorse XFe96 analyser based assay; assay type: cell-based
T2 sequence (whole entry): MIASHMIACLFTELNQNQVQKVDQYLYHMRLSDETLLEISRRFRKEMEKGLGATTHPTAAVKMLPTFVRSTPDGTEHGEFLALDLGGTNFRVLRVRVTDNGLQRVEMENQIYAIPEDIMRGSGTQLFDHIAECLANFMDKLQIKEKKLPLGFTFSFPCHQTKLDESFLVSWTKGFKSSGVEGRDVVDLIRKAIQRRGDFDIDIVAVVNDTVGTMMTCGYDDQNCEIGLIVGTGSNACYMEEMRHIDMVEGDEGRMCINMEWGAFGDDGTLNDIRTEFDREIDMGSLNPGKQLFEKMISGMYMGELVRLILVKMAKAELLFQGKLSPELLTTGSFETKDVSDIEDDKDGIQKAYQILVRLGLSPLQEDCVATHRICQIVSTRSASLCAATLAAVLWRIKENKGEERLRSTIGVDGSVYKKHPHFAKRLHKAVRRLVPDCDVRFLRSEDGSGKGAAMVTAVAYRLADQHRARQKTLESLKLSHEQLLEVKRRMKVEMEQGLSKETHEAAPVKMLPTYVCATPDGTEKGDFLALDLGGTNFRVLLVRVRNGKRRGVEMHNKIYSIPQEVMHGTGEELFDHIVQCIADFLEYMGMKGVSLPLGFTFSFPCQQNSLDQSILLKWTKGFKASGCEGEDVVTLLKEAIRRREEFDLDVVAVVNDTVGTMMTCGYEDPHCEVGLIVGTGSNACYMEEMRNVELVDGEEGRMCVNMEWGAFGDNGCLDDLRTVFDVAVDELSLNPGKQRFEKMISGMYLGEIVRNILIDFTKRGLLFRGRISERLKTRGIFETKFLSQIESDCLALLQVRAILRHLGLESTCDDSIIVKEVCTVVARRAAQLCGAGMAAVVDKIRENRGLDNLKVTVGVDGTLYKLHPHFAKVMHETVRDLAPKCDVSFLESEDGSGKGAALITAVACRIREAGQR

Hexokinase-2 [11] = molecular target: T1, Hexokinase-2; experiment: Binding affinity to recombinant human HK2 expressed in Escherichia coli BL21(DE3) assessed as dissociation constant measured after 15 mins by microscale thermophoresis assay
[12] = molecular target: T3, Hexokinase-2 (Homo sapiens) (UniProt P52789); experiment: Non competitive inhibition of recombinant human HK2 expressed in Escherichia coli BL21(DE3) assessed as decrease in Vmax using ATP as substrate by Lineweaver-Burk double reciprocal plot analysis
T3 sequence (whole entry): T1 sequence (P52789 whole entry)

[13] = molecular target: T3, Hexokinase-2 (Homo sapiens); experiment: Non competitive inhibition of recombinant human HK2 expressed in Escherichia coli BL21(DE3) assessed as decrease in Vmax using glucose as substrate by Lineweaver-Burk double reciprocal plot analysis

Transcription factor p65 (Mus musculus), sequence (Q04207 whole entry): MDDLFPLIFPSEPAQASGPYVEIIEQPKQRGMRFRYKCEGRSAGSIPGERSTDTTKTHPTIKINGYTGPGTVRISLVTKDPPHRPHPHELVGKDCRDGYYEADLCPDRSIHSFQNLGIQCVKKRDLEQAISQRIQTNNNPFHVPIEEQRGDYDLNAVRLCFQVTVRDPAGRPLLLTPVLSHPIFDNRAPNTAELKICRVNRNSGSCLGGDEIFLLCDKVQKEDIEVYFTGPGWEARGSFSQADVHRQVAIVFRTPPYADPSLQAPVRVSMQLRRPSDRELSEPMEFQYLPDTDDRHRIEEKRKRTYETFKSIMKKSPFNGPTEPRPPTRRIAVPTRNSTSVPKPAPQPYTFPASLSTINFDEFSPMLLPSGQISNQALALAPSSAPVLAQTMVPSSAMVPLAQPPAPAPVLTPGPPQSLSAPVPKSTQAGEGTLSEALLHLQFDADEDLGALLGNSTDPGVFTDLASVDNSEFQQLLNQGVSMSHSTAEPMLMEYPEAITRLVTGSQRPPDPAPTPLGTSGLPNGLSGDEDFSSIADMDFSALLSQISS

`C=C1CC[C@H]2[C@@](C)(CCC(=O)N[C@@]2(C)COC(=O)CCCC[C@@H]2CCSS2)[C@@H]1/C=C/C1=CCOC1=O` was tested, and the IC50 (RAW264.7 [1]) was 22.4 µM, the IC50 (Hexokinase-2 [2]) was 9.36 µM and the Activity (RAW264.7 [3]) was “Non-Toxic”. The inhibition (RAW264.7 [4]) was “Dose-dependent effect”, the inhibition (RAW264.7 [5]) was “Dose-dependent effect” and the inhibition (RAW264.7 [6]) was “Dose-dependent effect”. For the same compound, the inhibition (RAW264.7 [7]) was “Dose-dependent effect”, the inhibition (RAW264.7 [8]) was “Active” and the inhibition [9] was “Active”. For the same compound, the inhibition [10] was “Active”, the Kd (Hexokinase-2 [11]) was 5.12 µM and the inhibition [12] was “Dose-dependent effect”. For the same compound, the inhibition [13] was “Dose-dependent effect”.
